Several values for one entry are separate records, joined by “and”; a condition that tells them apart may be missing. Identical values can stand only once. Toxic doses and inconclusive results are not listed. Peptide text beside a SMILES is read from it. * marks the point of attachment. Cbz = O=C(OCc1ccccc1)*

Results on 30 molecules are retold here after PubChem BioAssay AID330 (DTP/NCI, 2004).

For the experiment, the system named is P388 leukemia ip, CD2F1 mice, survival T/C. Description: NCI In Vivo Anticancer Drug Screen. Data for tumor model P388 Leukemia (intraperitoneal) in CD2F1 (CDF1) mice. Particulars: endpoint: median survival time, higher = longer survival. The method in brief: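 Mice carrying the transplanted tumor received test compound or vehicle. Survival was recorded in each group, and the value is the treated-group measurement divided by that of the vehicle-treated control group.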

Where [1] appears, read: dose: 50.0 mg/kg/injection, schedule: Q01DX009 (ip), vehicle: saline with Tween-80.
Setting [2] is: dose: 240.0 mg/kg/injection, schedule: Q01DX005 (ip), vehicle: Klucel (hydroxypropylcellulose) (HPC).
The mark [3] stands for this setting: dose: 50.0 mg/kg/injection, schedule: Q01DX005 (ip), vehicle: Klucel (hydroxypropylcellulose) (HPC).
[4] abbreviates: dose: 200.0 mg/kg/injection, schedule: Q01DX005 (ip), vehicle: Klucel (hydroxypropylcellulose) (HPC).
Where [5] appears, read: dose: 60.0 mg/kg/injection, schedule: Q01DX005 (ip), vehicle: saline with Tween-80.
Where [6] appears, read: dose: 120.0 mg/kg/injection, schedule: Q01DX005 (ip), vehicle: saline with Tween-80.
Where [7] appears, read: dose: 240.0 mg/kg/injection, schedule: Q01DX005 (ip), vehicle: saline with Tween-80.
The mark [8] stands for this setting: dose: 50.0 mg/kg/injection, schedule: Q01DX005 (ip), vehicle: saline with Tween-80.
[9] abbreviates: dose: 100.0 mg/kg/injection, schedule: Q01DX005 (ip), vehicle: saline with Tween-80.
Where [10] appears, read: dose: 60.0 mg/kg/injection, schedule: Q01DX005 (ip), vehicle: saline.
Setting [11] is: dose: 120.0 mg/kg/injection, schedule: Q01DX005 (ip), vehicle: saline.
[12] abbreviates: dose: 240.0 mg/kg/injection, schedule: Q01DX005 (ip), vehicle: saline.
Where [13] appears, read: dose: 200.0 mg/kg/injection, schedule: Q01DX005 (ip), vehicle: saline with Tween-80.
[14] abbreviates: dose: 100.0 mg/kg/injection, schedule: Q01DX005 (ip), vehicle: Klucel (hydroxypropylcellulose) (HPC).
Setting [15] is: dose: 50.0 mg/kg/injection, schedule: Q01DX009 (ip), vehicle: saline.

For the molecule `CC(C)N1C(=O)C=C(c2ccc([N+](=O)[O-])cc2)C1=O`, the T/C was 105 % of control (dose: 12.5 mg/kg/injection, schedule: Q01DX009 (ip), vehicle: saline with Tween-80); 105 % of control (dose: 25.0 mg/kg/injection, schedule: Q01DX009 (ip), vehicle: saline with Tween-80); 106 % of control under setting [1].
Consider `CCC(C)/C(=C\C#N)NCCN/C(=C/C#N)C(C)CC` (stereo not given), for which the T/C reads like this: (dose: 60.0 mg/kg/injection, schedule: Q01DX005 (ip), vehicle: Klucel (hydroxypropylcellulose) (HPC)) 94 % of control; (dose: 120.0 mg/kg/injection, schedule: Q01DX005 (ip), vehicle: Klucel (hydroxypropylcellulose) (HPC)) 91 % of control; under setting [2], 89 % of control.
Take `O=C1C2=C(Nc3cc(Cl)ccc3N2)OC1c1ccc(Cl)c(Cl)c1` (stereo not given): the T/C is, setting by setting: under setting [3], 92 % of control; under setting [4], 88 % of control.
Regarding `COc1cc2cc(c1Cl)N(C)C(=O)CC(OC(=O)C(C)NC(=O)C(C)C)C1(C)OC1C(C)C1CC(O)(NC(=O)O1)C(OC)/C=C/C=C(C)C2OC` (stereo not given), the T/C (dose: 32.0 micrograms/kg/injection, schedule: Q01DX009 (ip), vehicle: distilled water + alcohol) was 159 % of control.
Regarding `N#C/C(=C\Nc1ccccn1)C(=O)c1ccccc1`, the T/C is, setting by setting: under setting [5], 91 % of control; under setting [6], 91 % of control; under setting [7], 91 % of control.
`O=C1CN(c2ccc(Cl)cc2)C(=O)CN1/N=C/c1ccc(O)c(O)c1`: the T/C by setting is: under setting [8], 99 % of control; under setting [9], 93 % of control.
Regarding `O=C/C=C/n1ccccc1=S`, the T/C is 109 % of control (dose: 10.0 mg/kg/injection, schedule: Q01DX001 (ip), vehicle: Klucel (hydroxypropylcellulose) (HPC)) and 102 % of control (dose: 20.0 mg/kg/injection, schedule: Q01DX001 (ip), vehicle: Klucel (hydroxypropylcellulose) (HPC)).
Regarding `CC(C)c1cccc(C(C)C)c1NC(=O)Nc1cccc(C(F)(F)F)c1`, the T/C by setting is: (dose: 15.0 mg/kg/injection, schedule: Q01DX005 (ip), vehicle: Klucel (hydroxypropylcellulose) (HPC)) 88 % of control; (dose: 30.0 mg/kg/injection, schedule: Q01DX005 (ip), vehicle: Klucel (hydroxypropylcellulose) (HPC)) 93 % of control; under setting [2], 88 % of control.
Turning to `CCCC(=O)NC1CCc2cc(OC)c(OC)c(OC)c2-c2ccc(OC)c(=O)cc21` (stereo not given), the T/C is 152 % of control (dose: 0.62 mg/kg/injection, schedule: Q01DX009 (ip), vehicle: Klucel (hydroxypropylcellulose) (HPC)); 178 % of control (dose: 0.63 mg/kg/injection, schedule: Q01DX009 (ip), vehicle: Klucel (hydroxypropylcellulose) (HPC)); 152 % of control and 233 % of control (dose: 1.25 mg/kg/injection, schedule: Q01DX009 (ip), vehicle: Klucel (hydroxypropylcellulose) (HPC)); 221 % of control (dose: 2.5 mg/kg/injection, schedule: Q01DX009 (ip), vehicle: Klucel (hydroxypropylcellulose) (HPC)).
`O=C(O)C(CO)NC(=O)C1CCCN1C(=O)OCc1ccccc1` (stereo not drawn) (Cbz-Pro-Ser-OH; configuration not given here): the T/C is 96 % of control (dose: 50.0 mg/kg/injection, schedule: Q01DX005 (ip), vehicle: saline) and 93 % of control (dose: 100.0 mg/kg/injection, schedule: Q01DX005 (ip), vehicle: saline).
For `CCOC(=O)/C=C/CC1CCNC1` (stereo not given), the T/C reads like this: under setting [10], 100 % of control; under setting [11], 100 % of control; under setting [12], 106 % of control.
On to `Cc1cc(C)nc(NS(=O)(=O)c2ccc(Nc3c4ccc(Cl)cc4nc4ncccc34)cc2)n1`, for which the T/C runs as follows: under setting [8], 110 % of control; under setting [9], 106 % of control; under setting [13], 116 % of control.
For the molecule `COc1cc2c(cc1OC)C(c1ccc([N+](=O)[O-])c(C)c1)=NCC2`, the T/C runs as follows: under setting [3], 100 % of control; under setting [14], 100 % of control; under setting [4], 96 % of control.
On to `N#CC(C#N)=CNc1ccccc1C(=O)NCCCn1ccnc1`, for which the T/C is 93 % of control under setting [5], 93 % of control under setting [6] and 95 % of control under setting [7].
As for `CN1C(c2ccccc2)=C(C#N)C(=O)CC(c2ccc(Cl)cc2)N1C` (stereo not given), the T/C is 102 % of control under setting [5], 91 % of control under setting [6] and 101 % of control under setting [7].
For the molecule `CC(C)(O)C#C[Si](C)(C)C`, the T/C under setting [8] was 98 % of control, the T/C under setting [9] is 103 % of control and the T/C under setting [13] was 94 % of control.
As to `C1=NOC2c3ccc4ccccc4c3CCC12` (stereo not given), the T/C (dose: 100.0 mg/kg/injection, schedule: Q01DX009 (ip), vehicle: Klucel (hydroxypropylcellulose) (HPC)) is 100 % of control; the T/C (dose: 200.0 mg/kg/injection, schedule: Q01DX009 (ip), vehicle: Klucel (hydroxypropylcellulose) (HPC)) is 95 % of control; the T/C (dose: 400.0 mg/kg/injection, schedule: Q01DX009 (ip), vehicle: Klucel (hydroxypropylcellulose) (HPC)) is 100 % of control.
`Cc1cc2c(=O)[nH]c(N)nc2nc1C`: the T/C reads like this: under setting [8], 100 % of control; under setting [9], 96 % of control; under setting [13], 102 % of control.
For the molecule `Cc1ccc(S(=O)(=O)NC(=O)c2cnc(N(C)C)s2)cc1`, the T/C runs as follows: under setting [3], 104 % of control; under setting [14], 101 % of control; under setting [4], 107 % of control.
As for `Cc1c(N=Nc2ccccc2Cl)c(-c2ccccc2)nn1C(=S)S`, the T/C is, setting by setting: under setting [8], 111 % of control; under setting [9], 108 % of control; under setting [13], 111 % of control.
On to `Cc1cc(N=Nc2ccc(N=Nc3ccc(S(=O)(=O)O)cc3)cc2)cc(C(=O)O)c1O`, for which the T/C (dose: 12.5 mg/kg/injection, schedule: Q01DX009 (ip), vehicle: saline) is 114 % of control; the T/C (dose: 25.0 mg/kg/injection, schedule: Q01DX009 (ip), vehicle: saline) is 113 % of control; the T/C under setting [15] was 91 % of control and 96 % of control; the T/C (dose: 200.0 mg/kg/injection, schedule: Q01DX009 (ip), vehicle: saline) is 93 % of control.
Take `O=C1NCC(=O)N2CCCC12` (stereo not given): the T/C was 99 % of control under setting [10], 100 % of control under setting [11] and 107 % of control under setting [12].
In the case of `CN=C(N)N/N=C(\c1ccccc1)c1ccc(F)cc1`, the T/C is, setting by setting: (dose: 12.5 mg/kg/injection, schedule: Q04DX002 (ip), vehicle: saline with Tween-80) 99 % of control; (dose: 25.0 mg/kg/injection, schedule: Q04DX002 (ip), vehicle: saline with Tween-80) 100 % of control and 111 % of control.
For the molecule `COC1=CCCC(C(C)=O)C1Sc1ccccc1` (stereo not given), the T/C runs as follows: (dose: 100.0 mg/kg/injection, schedule: Q01DX001 (ip), vehicle: saline) 100 % of control; (dose: 200.0 mg/kg/injection, schedule: Q01DX001 (ip), vehicle: saline) 102 % of control; (dose: 400.0 mg/kg/injection, schedule: Q01DX001 (ip), vehicle: saline) 100 % of control.
`CCC(=NCCCCCCN=C(CC)c1cc(O)ccc1O)c1cc(O)ccc1O.[Fe]`: the T/C is, setting by setting: under setting [8], 88 % of control; under setting [9], 89 % of control; under setting [13], 91 % of control.
On to `COC(=O)CC(C)CC(=O)O` (stereo not given), for which the T/C is 100 % of control under setting [1]; 107 % of control (dose: 100.0 mg/kg/injection, schedule: Q01DX009 (ip), vehicle: saline with Tween-80); 100 % of control (dose: 200.0 mg/kg/injection, schedule: Q01DX009 (ip), vehicle: saline with Tween-80).
For the molecule `C1CN2CN3CCN(CN1C3)C2`, the T/C (dose: 6.25 mg/kg/injection, schedule: Q01DX009 (ip), vehicle: saline) was 108 % of control; the T/C under setting [15] is 158 % of control; the T/C (dose: 100.0 mg/kg/injection, schedule: Q01DX009 (ip), vehicle: saline) was 168 % of control.
As to `O=C([CH-]C(=O)C(F)(F)F)c1ccco1.O=C([CH-]C(=O)C(F)(F)F)c1ccco1.O=C([CH-]C(=O)C(F)(F)F)c1ccco1.[Ru+3]`, the T/C is, setting by setting: under setting [5], 100 % of control; under setting [6], 97 % of control; under setting [7], 89 % of control.
Regarding `COC1(OC)C(=S)N(C2CCCCC2)C(=S)N1C1CCCCC1`, the T/C is, setting by setting: under setting [3], 95 % of control; under setting [14], 95 % of control; under setting [4], 96 % of control.
As to `CC(=O)O/N=C/c1cc[n+](C)cc1`, the T/C runs as follows: (dose: 25.0 mg/kg/injection, schedule: Q04DX003 (ip), vehicle: saline) 105 % of control; (dose: 50.0 mg/kg/injection, schedule: Q04DX003 (ip), vehicle: saline) 101 % of control; (dose: 100.0 mg/kg/injection, schedule: Q04DX003 (ip), vehicle: saline) 90 % of control.
